Laboratory results from ChEMBL document CHEMBL4020848, “Antibacterial Activity Affected by the Conformational Flexibility in Glycine-Lysine Based α-Helical Antimicrobial Peptides” (J Med Chem, 2018).
Converted amounts (≈) assume the structure as drawn. The source made the active and inactive calls. The rule behind the calls is not given here.

Experiments:
[1] = Cytotoxicity against human peripheral blood leukocytes assessed as cell viability at 0.18 uM after 24 hrs by acridine orange/ethidium bromide staining based fluorescence microscopic method relative to control; parameters: species or system Leukocyte; details: read-out: Activity
Escherichia coli [2] = experiment: Induction of membrane permeabilization in Escherichia coli ATCC 25922 assessed as loss of pili/flagella at MBC after 1 hr by atomic force microscopic method; assay type: functional
Escherichia coli [3] = experiment: Induction of membrane permeabilization in Escherichia coli ATCC 25922 assessed as loss of pili/flagella at MIC after 1 hr by atomic force microscopic method; assay type: functional
Escherichia coli [4] = experiment: Bactericidal activity against Escherichia coli ATCC 25922 after 18 hrs by microdilution method; assay type: functional; details: ATCC 25922, 18 h, read-out: MBC=>99.9

Which results are given for `CC[C@H](C)[C@H](NC(=O)CN)C(=O)NCC(=O)N[C@@H](C)C(=O)N[C@H](C(=O)N[C@@H](CC(C)C)C(=O)N[C@@H](CCCCN)C(=O)N[C@H](C(=O)N[C@@H](CC(C)C)C(=O)N[C@H](C(=O)N[C@H](C(=O)NCC(=O)N[C@@H](CC(C)C)C(=O)N1CCC[C@H]1C(=O)N[C@@H](C)C(=O)N[C@@H](CC(C)C)C(=O)N[C@H](C(=O)N[C@@H](CO)C(=O)N[C@@H](Cc1c[nH]c2ccccc12)C(=O)N[C@H](C(=O)N[C@@H](CCCCN)C(=O)N[C@@H](CCCNC(=N)N)C(=O)N[C@@H](CCCCN)C(=O)N[C@@H](CCCNC(=N)N)C(=O)N[C@@H](CCC(N)=O)C(=O)N[C@@H](CCC(N)=O)C(N)=O)[C@@H](C)CC)[C@@H](C)CC)[C@@H](C)O)[C@@H](C)O)C(C)C)C(C)C` [MELITTIN]?
viability at 24 h, 0.18 µM [1]: 60%; Activity (Escherichia coli [2]): Active; Activity (Escherichia coli [3]): Active; MBC (Escherichia coli [4]): 20 µM (≈ 56.9 µg/mL)
